Experimental findings from the supplement of paper PMC10307832 are described below.

Test in all cases: relative viability (nuclei count vs DMSO), 5 days (fraction); higher = more cells survive
Compound in the assay “Idelalisib + Lapatinib”: CC[C@H](Nc1ncnc2[nH]cnc12)c1nc2cccc(F)c2c(=O)n1-c1ccccc1 [Idelalisib] + CS(=O)(=O)CCNCc1ccc(-c2ccc3ncnc(Nc4ccc(OCc5cccc(F)c5)c(Cl)c4)c3c2)o1 [Lapatinib] (partner 2 µM)
Summed up: (§1)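 After 5 days of treatment, lung cancer cells in 1536-well plates were fixed and stained in a single step (final 0.05% Triton X-100, 1% formaldehyde, 1 ug/ml Hoechst) and their nuclei counted on 4× images. Treatment had been applied by pin tool the day after seeding as one drug alone or as a fixed anchor-drug dose with five library-drug doses (not always all listed) in √10 steps. Relative viability is the nuclei count of treated wells divided by that of vehicle wells, and values are medians of duplicate plates.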

Compound in the assay “Idelalisib + Crizotinib”: CC[C@H](Nc1ncnc2[nH]cnc12)c1nc2cccc(F)c2c(=O)n1-c1ccccc1 [Idelalisib] + C[C@@H](Oc1cc(-c2cnn(C3CCNCC3)c2)cnc1N)c1c(Cl)ccc(F)c1Cl [Crizotinib] (partner 1 µM)
Summed up:
as §1

Compound in the assay “Pemetrexed + Foretinib”: Nc1nc2[nH]cc(CCc3ccc(C(=O)N[C@@H](CCC(=O)O)C(=O)O)cc3)c2c(=O)[nH]1 [Pemetrexed] + COc1cc2c(Oc3ccc(NC(=O)C4(C(=O)Nc5ccc(F)cc5)CC4)cc3F)ccnc2cc1OCCCN1CCOCC1 [Foretinib] (partner 0.25 µM)
Summed up:
as §1

Compound in the assay “Pemetrexed + Decitabine”: Nc1nc2[nH]cc(CCc3ccc(C(=O)N[C@@H](CCC(=O)O)C(=O)O)cc3)c2c(=O)[nH]1 [Pemetrexed] + Nc1ncn([C@H]2C[C@H](O)[C@@H](CO)O2)c(=O)n1 [Decitabine] (partner 2 µM)
Summed up:
as §1

Consider NCI-H1650, for which the relative viability in the assay with Idelalisib + Lapatinib (first compound 0.04 µM) was 0.888; in the assay with Idelalisib + Lapatinib (first compound 0.1265 µM), 0.806; with Idelalisib + Lapatinib (first compound 0.4 µM) it was 0.762; in the assay with Idelalisib + Lapatinib (first compound 1.265 µM), 0.775; with Idelalisib + Lapatinib (first compound 4 µM) it was 0.561; in the assay with Idelalisib + Crizotinib (first compound 0.04 µM), 0.87. Besides, the relative viability with Idelalisib + Crizotinib (first compound 0.1265 µM) worked out at 0.892; with Idelalisib + Crizotinib (first compound 0.4 µM), 0.975; with Idelalisib + Crizotinib (first compound 1.265 µM), 0.985; with Idelalisib + Crizotinib (first compound 4 µM), 0.952; with Pemetrexed + Foretinib (first compound 0.002 µM) it was 0.985; with Pemetrexed + Foretinib (first compound 0.006325 µM) it was 0.988. Also, the relative viability amounted to 1.17 in the assay with Pemetrexed + Foretinib (first compound 0.02 µM); 0.888 with Pemetrexed + Foretinib (first compound 0.06325 µM); 0.402 with Pemetrexed + Foretinib (first compound 0.2 µM); 0.426 in the assay with Pemetrexed + Decitabine (first compound 0.002 µM); 0.32 with Pemetrexed + Decitabine (first compound 0.006325 µM); 0.545 in the assay with Pemetrexed + Decitabine (first compound 0.02 µM). The values for the relative viability with Pemetrexed + Decitabine (first compound 0.06325 µM) and with Pemetrexed + Decitabine (first compound 0.2 µM) were 0.249 and 0.317, respectively.
Take NCI-H1915: the relative viability with Idelalisib + Lapatinib (first compound 0.04 µM) was 1.06; in the assay with Idelalisib + Lapatinib (first compound 0.1265 µM), 1; with Idelalisib + Lapatinib (first compound 0.4 µM), 0.96; in the assay with Idelalisib + Lapatinib (first compound 1.265 µM), 1.11; in the assay with Idelalisib + Lapatinib (first compound 4 µM) it was 0.922; with Idelalisib + Crizotinib (first compound 0.04 µM) it was 0.989. For the same cell line, the relative viability turned out to be 0.865 with Idelalisib + Crizotinib (first compound 0.1265 µM); 0.848 in the assay with Idelalisib + Crizotinib (first compound 0.4 µM); 0.979 with Idelalisib + Crizotinib (first compound 1.265 µM); 0.895 with Idelalisib + Crizotinib (first compound 4 µM); 1.04 in the assay with Pemetrexed + Foretinib (first compound 0.002 µM); 1.05 with Pemetrexed + Foretinib (first compound 0.006325 µM). Further, the relative viability in the assay with Pemetrexed + Foretinib (first compound 0.02 µM) is 1.11; with Pemetrexed + Foretinib (first compound 0.06325 µM) it was 1.07; with Pemetrexed + Foretinib (first compound 0.2 µM) it was 1.11; in the assay with Pemetrexed + Decitabine (first compound 0.002 µM) it was 0.263; in the assay with Pemetrexed + Decitabine (first compound 0.006325 µM), 0.258; with Pemetrexed + Decitabine (first compound 0.02 µM) it was 0.243. The relative viability with Pemetrexed + Decitabine (first compound 0.06325 µM) worked out at 0.25; with Pemetrexed + Decitabine (first compound 0.2 µM), 0.26.
As to ABC-1, the relative viability with Idelalisib + Lapatinib (first compound 0.04 µM) was determined as 1.11; in the assay with Idelalisib + Lapatinib (first compound 0.1265 µM), 1.19; in the assay with Idelalisib + Lapatinib (first compound 0.4 µM) it was 1.13; with Idelalisib + Lapatinib (first compound 1.265 µM) it was 1.01; in the assay with Idelalisib + Lapatinib (first compound 4 µM), 1.08; in the assay with Idelalisib + Crizotinib (first compound 0.04 µM), 0.95. Further, the relative viability worked out at 1.23 in the assay with Idelalisib + Crizotinib (first compound 0.1265 µM); 1.14 with Idelalisib + Crizotinib (first compound 0.4 µM); 1.04 with Idelalisib + Crizotinib (first compound 1.265 µM); 0.902 with Idelalisib + Crizotinib (first compound 4 µM); 1.26 in the assay with Pemetrexed + Foretinib (first compound 0.002 µM); 0.927 with Pemetrexed + Foretinib (first compound 0.006325 µM). Further, the relative viability with Pemetrexed + Foretinib (first compound 0.02 µM) amounted to 1.01; with Pemetrexed + Foretinib (first compound 0.06325 µM), 0.992; in the assay with Pemetrexed + Foretinib (first compound 0.2 µM) it was 1.08; with Pemetrexed + Decitabine (first compound 0.002 µM), 1.15; with Pemetrexed + Decitabine (first compound 0.006325 µM), 1.02; in the assay with Pemetrexed + Decitabine (first compound 0.02 µM), 1.32. The relative viability with Pemetrexed + Decitabine (first compound 0.06325 µM) is 0.997; with Pemetrexed + Decitabine (first compound 0.2 µM), 1.19.
Consider HCC-44, for which the relative viability with Idelalisib + Lapatinib (first compound 0.04 µM) came to 1.02; with Idelalisib + Lapatinib (first compound 0.1265 µM) it was 1.01; with Idelalisib + Lapatinib (first compound 0.4 µM) it was 1; in the assay with Idelalisib + Lapatinib (first compound 1.265 µM), 1.07; with Idelalisib + Lapatinib (first compound 4 µM), 1.14; in the assay with Idelalisib + Crizotinib (first compound 0.04 µM), 0.822. In addition, the relative viability is 0.857 with Idelalisib + Crizotinib (first compound 0.1265 µM); 0.819 in the assay with Idelalisib + Crizotinib (first compound 0.4 µM); 0.948 with Idelalisib + Crizotinib (first compound 1.265 µM); 0.85 with Idelalisib + Crizotinib (first compound 4 µM); 0.854 in the assay with Pemetrexed + Decitabine (first compound 0.002 µM); 0.909 in the assay with Pemetrexed + Decitabine (first compound 0.006325 µM). Moreover, the values for the relative viability with Pemetrexed + Decitabine (first compound 0.02 µM), with Pemetrexed + Decitabine (first compound 0.06325 µM) and with Pemetrexed + Decitabine (first compound 0.2 µM) were 1.02, 0.922 and 0.905, respectively.
Turning to HCC-78, the relative viability with Idelalisib + Lapatinib (first compound 0.04 µM) was found to be 0.709; with Idelalisib + Lapatinib (first compound 0.1265 µM), 0.81; in the assay with Idelalisib + Lapatinib (first compound 0.4 µM), 0.577; with Idelalisib + Lapatinib (first compound 1.265 µM) it was 0.916; with Idelalisib + Lapatinib (first compound 4 µM), 0.754; with Idelalisib + Crizotinib (first compound 0.04 µM) it was 0.322. Moreover, the relative viability amounted to 0.354 with Idelalisib + Crizotinib (first compound 0.1265 µM); 0.296 with Idelalisib + Crizotinib (first compound 0.4 µM); 0.31 in the assay with Idelalisib + Crizotinib (first compound 1.265 µM); 0.274 with Idelalisib + Crizotinib (first compound 4 µM); 0.447 with Pemetrexed + Foretinib (first compound 0.002 µM); 0.541 in the assay with Pemetrexed + Foretinib (first compound 0.006325 µM). Further, the relative viability with Pemetrexed + Foretinib (first compound 0.02 µM) amounted to 0.54; with Pemetrexed + Foretinib (first compound 0.06325 µM), 0.319; with Pemetrexed + Foretinib (first compound 0.2 µM) it was 0.298; with Pemetrexed + Decitabine (first compound 0.006325 µM) it was 0.685; with Pemetrexed + Decitabine (first compound 0.02 µM) it was 0.777; with Pemetrexed + Decitabine (first compound 0.06325 µM) it was 0.324. Besides, the relative viability with Pemetrexed + Decitabine (first compound 0.2 µM) turned out to be 0.307.
For the cell line LXF-289, the relative viability was found to be 0.945 with Idelalisib + Lapatinib (first compound 0.04 µM); 0.901 with Idelalisib + Lapatinib (first compound 0.1265 µM); 0.906 with Idelalisib + Lapatinib (first compound 0.4 µM); 0.96 with Idelalisib + Lapatinib (first compound 1.265 µM); 0.943 with Idelalisib + Lapatinib (first compound 4 µM); 0.839 in the assay with Idelalisib + Crizotinib (first compound 0.04 µM). The relative viability with Idelalisib + Crizotinib (first compound 0.1265 µM) amounted to 0.818; with Idelalisib + Crizotinib (first compound 0.4 µM) it was 0.778; with Idelalisib + Crizotinib (first compound 1.265 µM), 0.909; with Idelalisib + Crizotinib (first compound 4 µM), 0.825; with Pemetrexed + Foretinib (first compound 0.002 µM), 0.925; with Pemetrexed + Foretinib (first compound 0.006325 µM) it was 0.994. Moreover, the relative viability in the assay with Pemetrexed + Foretinib (first compound 0.02 µM) amounted to 1.03; with Pemetrexed + Foretinib (first compound 0.06325 µM), 0.991; with Pemetrexed + Foretinib (first compound 0.2 µM) it was 0.959; with Pemetrexed + Decitabine (first compound 0.002 µM), 0.363; with Pemetrexed + Decitabine (first compound 0.006325 µM) it was 0.393; with Pemetrexed + Decitabine (first compound 0.02 µM) it was 0.38. Besides, the relative viability with Pemetrexed + Decitabine (first compound 0.06325 µM) came to 0.403; in the assay with Pemetrexed + Decitabine (first compound 0.2 µM) it was 0.404.
Take 201T: the relative viability came to 0.978 with Idelalisib + Lapatinib (first compound 0.04 µM); 1.05 with Idelalisib + Lapatinib (first compound 0.1265 µM); 1.04 with Idelalisib + Lapatinib (first compound 0.4 µM); 1.13 with Idelalisib + Lapatinib (first compound 1.265 µM); 1.02 in the assay with Idelalisib + Lapatinib (first compound 4 µM); 1.02 with Idelalisib + Crizotinib (first compound 0.04 µM). In addition, the relative viability is 1.07 in the assay with Idelalisib + Crizotinib (first compound 0.1265 µM); 0.999 with Idelalisib + Crizotinib (first compound 0.4 µM); 1.08 in the assay with Idelalisib + Crizotinib (first compound 1.265 µM); 1.02 with Idelalisib + Crizotinib (first compound 4 µM); 1.1 with Pemetrexed + Foretinib (first compound 0.002 µM); 1.11 with Pemetrexed + Foretinib (first compound 0.006325 µM). The relative viability with Pemetrexed + Foretinib (first compound 0.02 µM) turned out to be 1.19; with Pemetrexed + Foretinib (first compound 0.06325 µM), 0.69; with Pemetrexed + Foretinib (first compound 0.2 µM), 0.316; with Pemetrexed + Decitabine (first compound 0.002 µM), 0.712; in the assay with Pemetrexed + Decitabine (first compound 0.006325 µM), 0.803; with Pemetrexed + Decitabine (first compound 0.02 µM), 0.808. For the same cell line, the relative viability in the assay with Pemetrexed + Decitabine (first compound 0.06325 µM) worked out at 0.849; in the assay with Pemetrexed + Decitabine (first compound 0.2 µM) it was 0.85.
